In patent US20230150951A1, “2,5- OR 2,6-DISUBSTITUTED HYDROQUINONE DERIVATIVES WITH AT LEAST ONE CARBOXY, SULFO OR AMIDO GROUP USEFUL AS MEDICAMENTS” (OM PHARMA SA, priority 2020, published 2023) one finds IC50 data, which are given here for one compound.

pIC50: −log10 of the molar value. Where two headings read alike, the source gives them in different places.

Common to all, as to type: cell-based
In one experiment the target is T1, FGF-1 (Homo sapiens, UniProt P05230).
T1 construct: purchased Peprotech 100-17A
In words: FGF-1 induced sprouting of HUVEC, spheroid-based cellular angiogenesis assay. Particulars: FGF-1 25 ng/mL preincubated with compound, 24 h. The method in brief: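 Spheroids of 400 HUVEC (passage 3–4), embedded in collagen gel, were stimulated with FGF-1, FGF-2 or VEGF-A (final 25 ng/mL) preincubated 30 min at 37°C with compound (final 1.56–100 μM).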

Another experiment deals with IL-1beta. In words: Cytokine release after LPS induction on human whole blood: IL-1β. On the procedure: (§1) Aim of this in vitro method is to assess compounds effects on release of a panel of cytokines from whole blood following lipopolysaccharide (LPS) induced inflammatory reaction. Whole blood was incubated with compounds for 1 h prior to LPS induction. Cytokine levels in blood were measured using a multiplex FACS-based panel.
(§2) IC50 values determined for the tested compounds expressed in microM [μM] and the values for the inhibition of cytokines were listed for each compound.
(§3) Effect on cytokines release after LPS induction was performed on the compounds dissolved in DMSO or H2O to reach 10-fold concentrated stock solutions and dissolved in culture media.
(§4) Test system: Whole blood was removed from a single donor (into lithium heparin coated tubes; BD Vacutainer; 367886) and diluted 1:5 with RPMI 1640 (Thermo Fisher, 61870036). Within 30 minutes of sampling, blood was incubated with compounds for 1 h prior to LPS stimulation (O111:B4—Sigma L4391; 10 ng/ml final concentration). Stimulation continued under standard cell culture conditions (37° C. with 5% CO2) overnight (18 h), after which plates were centrifuged and supernatant removed and frozen at −80° C. until used for analyses.
(§5) Dilution of test compounds: 10×concentrated solutions (concerning to the final assay concentrations) of each test compound were prepared with the appropriate solvent (in DMSO or in water). These 10× compound solutions (10 μl) were then added to 90 μl pre-diluted whole blood (whole blood: RPMI1640, 1:5) resulting in the final assay concentration.
(§6) Test method: Diluted whole blood (80 μl) was pre-incubated with compounds (10 μl) to give final assay concentrations of 100, 30, 10, 3, 1, 0.3 and 0.1×10^−6M. Blood was incubated at 37° C. with 5% CO2 for 1 h. LPS was diluted in cell culture media to a concentration of […]; 10 μl was added to the whole blood to give a final concentration of 10 ng/ml. Plates were incubated at 37° C. for 18 h. Plates were centrifuged at 3,000 RPM for 5 minutes at 4° C. and supernatant removed and frozen at −80° C. until FACS analysis was carried out.
(§7) Cytokine release was measured using a custom multiplex system (ELISA Genie) according to manufacturers instructions. Prepared samples were run on an Attune NxT flow cytometer (Thermo Fisher).
(§8) Quantification of cytokine release inhibition: known concentration standards were run as part of the cytokine panel to allow quantification of each cytokine concentration in each sample. This was carried out using FCAP Array v3.0 software.
(§9) Results: The dose response relationship on cytokine release following LPS induction of inflammatory response in whole blood was assessed for all compounds. IC50 values were determined for each compound for a panel of cytokines (GM-CSF, IFN-gamma, IL-1beta, IL-2, IL-4, IL-5, IL-6, IL-8, IL-9, IL-10, IL-12p40, IL-13, IL-17A, IL-17F, IL-18, IL-21, IL-22, IL-33, TGF-beta, TNF-alpha, TNF-beta).

Another experiment concerns IL-17F. Description: Cytokine release after LPS induction on human whole blood: IL-17F. How it is done: as §1, §2, §3, §4, §5, §6, §7, §8, §9

T1 sequence (P05230 whole entry): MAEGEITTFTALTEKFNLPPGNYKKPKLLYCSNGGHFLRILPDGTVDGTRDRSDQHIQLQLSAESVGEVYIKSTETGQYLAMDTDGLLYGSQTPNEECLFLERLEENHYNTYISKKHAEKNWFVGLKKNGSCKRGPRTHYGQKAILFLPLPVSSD

Consider `O=C(O)c1cc(NC(=O)c2cc(O)c(C(=O)Nc3ccc(O)c(C(=O)O)c3)cc2O)ccc1O` [Ic-007a, 5-(4-(3-carboxy-4-hydroxyphenylaminocarbonyl)-2,5-dihydroxybenzamido)-2-hydroxy benzoic acid], for which the pIC50 (in general, the negative decadic logarithm of the IC50, by convention in mol/L) was 4.89 at FGF-1; less than 4.00 in the experiment on IL-1beta (Homo sapiens, LPS 10 ng/ml, 18 h, read-out: Whole Blood: IL-1β IC50); 4.00 in the experiment with IL-1beta (human whole blood, inhibition of LPS induced inflammation, read-out: IC50 IL-1b); 4.64 with IL-17F (Homo sapiens, LPS 10 ng/ml, 18 h, read-out: Whole Blood: IL-17F IC50); 4.64 in the experiment on IL-17F (human whole blood, inhibition of LPS induced inflammation, read-out: IC50 IL-17F).
